Reference: US11523610B2, “Regulating plant growth using a diapocarotenoid” (King Abdullah University of Science and Technology, priority 2018, dated 2022)

Experiments:
[1] = system: Arabidopsis seedlings (anchor roots); test: ANR formation under OH-Apo10′ and OH-Apo12′ treatment; type: in vivo; details: 10 μM, counted at 10 DAG
Text: FIGS. 21A-D show a diapocarotenoid precursor (OH-Apo12′) is converted into anchorene in plants, according to one or more embodiments of the present disclosure. […] (B) is a histogram showing quantification of achorene in mock, OH-Apo10′, and OH-Apo12′ fed Arabidopsis seedlings. (C) is a histogram showing ANR emergence in mock, OH-Apo10′, and OH-Apo12′ fed seedlings. […] For B and C, two-tailed Student's t-test, **P<0.01, *** P<0.001; in B, n=4; in C data are presented as mean ±SD from 3 independent replicates; in B, 12-day-old seedlings were incubated with indicated chemicals for 6 hours and 20 μM OH-Apol10′ and OH-Apo12′ were used; and C, 10 μM OH-Apol ′ and OH-Apo12′ were used and the ANR No./plant was counted at 10 DAG. For the quantification of ANR formation under OH-Apo10′ and OH-Apo12′ treatment conditions, the sterilized Arabidopsis seeds were exposed to light for 24 hours first, and then plated to 1/2 MS plates with indicated chemicals; the plates were kept under darkness (22° C.) for another two days and then exposed to long day light conditions for another 7 days to count the ANR emergence.

[2] = LC-MS quantification of anchorene in Arabidopsis tissues; details: 12-day-old seedlings incubated 6 hours with 20 μM; compared to control and OH-APO10′
Procedure: About 30 mg (30-40 mg) of freeze-dried and ground Arabidopsis seedlings tissues were extracted using 1 mL of acetonitrile with anti-oxidant [0.1% butylated hydroxytoluene (BHT)] for 15 min in an ultrasonic bath (Branson® 5510EDTH, 25° C., 15 min), followed by centrifugation for 8 min at 13000 rpm at 4° C. The collected supernatant was dried using a concentrator (Labconco RapidVap® System). The extract was derivatized (SCHEME 3) with 50 μL of derivatization solution containing 5 mg/mL derivatization reagent (N^2,N^2,N^4,N^4-tetraethyl-6-hydrazineyl-1,3,5-triazine-2,4-diamine) (Chemspace) and 1% formic acid in methanol at 37° C. for 15 min. Then the sample solution was diluted to 150 μL with 1% formic acid in methanol and filtered by using 0.22 μm filter before LC-MS analysis.
The quantitative analysis of derivative anchorene were carried out on HPLC-Q-Trap MS/MS. Chromatographic separation was achieved on an Acquity UPLC CSH C18 column (50×2.1 mm; 1.7 μm; Waters) using a mobile phase consisting of water: acetonitrile (95:5, v:v, A) and pure acetonitrile (B), both containing 0.1% formic acid. A gradient was applied, starting with 10% B and increasing to 40% B over 5 min. Then 15% B was increased
within 10 min followed by an increase of 45% B over 2 min. And then 100% B was maintained for 10 min. To equilibrate the column before the next run, the mobile phase was adjusted back to 10% B in 1 min and this concentration was maintained for 8 min prior to the next sample injection. A flow rate of 0.15 mL/min and a column temperature of 40° C. were maintained throughout the run. The eluent of the column was introduced to the mass spectrometer using turbo spray ion source in positive mode. The injection volume was 10 μL. The conditions of the mass spectrometer were set as following: curtain gas: 30; ion spray voltage: 5 kV; temperature: 400° C.; ion source gas 1: 30; ion source gas 2: 40; declustering potential, 55; entrance potential: 10; collision energy: 25; collision cell exit potential: 10. […]

| Structure (SMILES) | anchor roots formed compared to mock (ANR No./plant) [1] | anchorene content of fed seedlings [2] |
| --- | --- | --- |
| CC(C=CC=O)=CC=CC=C(C)C=CC=C(C)C=CC1=C(C)CC(O)CC1(C)C (stereo not drawn) [OH-APO10′, reference compound] | not |  |
| CC1=C(/C=C/C(C)=C/C=C/C(C)=C/C=C/C=C(\C)C=O)C(C)(C)CC(O)C1 (stereo not drawn) [OH-APO12′, all-trans-3-OH-β12′-carotenal] | formed more anchor routes | much more anchorene |
